23 compounds from PubChem BioAssay (NCI) can be followed below.

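All cell lines were grown in 96-well plates and treated with compound for 48 hours. Abbreviation: GI50, concentration required for 50% inhibition of growth. The concentration for full growth arrest is given as TGI.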 Where a SMILES comes first, the peptide text is derived from it. [ ]: non-standard residue; d: D form. The star is where a group is joined. mTyr = N[CH](Cc1cccc(O)c1)C(=O)O; Cbz = O=C(OCc1ccccc1)*; OBn = c1ccc(CO*)cc1

Common to all, as to assay: NCI tumour cell line growth inhibition, 48 h
Assay [1] concerns 786-0 renal.
The test system of assay [2] is HT29 colon.
For assay [3], the system named is KM12 colon.
In assay [4] the test system is LOX IMVI melanoma.
The test system of assay [5] is MDA-MB-231 breast.
In assay [6] the test system is SF-295 CNS.
The test system of assay [7] is SF-539 CNS.
For assay [8], the system named is SNB-19 CNS.
Assay [9] deals with UO-31 renal.
Assay [10] relates to NCI/ADR-RES ovarian.

`Cc1cc(NCCCCCCCNc2cc(C)nc3cc([N+](=O)[O-])ccc23)c2ccc([N+](=O)[O-])cc2n1`: the TGI in assay [1] worked out at 39.3 µM; in [2], 8.43 µM; in assay [3] it was 3.74 µM; in assay [4] it was 5.69 µM; in assay [5] it was 6.58 µM; in [6], 26.4 µM. Moreover, the TGI is 39.5 µM in assay [7], 39.5 µM in assay [8] and 29 µM in assay [9].
For `Cc1ccc(N=Nc2c(O)c(C(=O)Nc3ccccc3)cc3ccccc23)c([N+](=O)[O-])c1`, the TGI in assay [1], in assay [2], in assay [3], in [4], in assay [5] and in [10] was over 100 µM throughout. Besides, the TGI in [6], in [8] and in assay [9] was over 100 µM in each case.
As for `CCOC(=O)c1ccc(C(=O)C(C(C)=O)C(=O)OC(C)(C)C)[nH]1` (stereo unspecified), the TGI in [1], in assay [2], in assay [3], in assay [4], in [5] and in assay [10] was over 100 µM in each case. Moreover, the TGI in assay [6], in assay [8] and in assay [9] was over 100 µM each time.
Take `COc1cc2c(cc1OC)C1(c3ccc(Cl)cc3)ON=C(c3ccccc3)N1CS2` (stereo unspecified): the TGI in assay [1], in assay [2], in [3], in [4], in [6] and in assay [7] was over 100 µM throughout. Moreover, the TGI in assay [8] and in [9] was over 100 µM each time.
In the case of `CN(CCCNC(=O)c1nn(-c2ccc(Cl)cc2Cl)c2c1Cc1ccccc1-2)CCCNC(=O)c1nn(-c2ccc(Cl)cc2Cl)c2c1Cc1ccccc1-2`, the TGI in [1] was 3.21 µM; in assay [2], 3.42 µM; in [3], 4.01 µM; in assay [4], 3.26 µM; in assay [5] it was 3.18 µM; in [10] it was 3.55 µM. The TGI in assay [6] was found to be 3.15 µM; in assay [8], 3.24 µM; in assay [9], 3.59 µM.
For the compound `O=C(N/N=C/c1cc(Cl)cc(Cl)c1O)c1ccccc1O`, the TGI in [2] was found to be 26.1 µM; in [3] it was 34.7 µM; in [4], 24.9 µM; in [6], 11.3 µM; in [7] it was 6.69 µM; in assay [8] it was 43.7 µM. In assay [9], this compound gave a TGI of 29.5 µM. Besides, the GI50 was 3.72 µM in [3] and 1.75 µM in assay [7].
On to `CC(C)(CC(O)C#N)/[N+]([O-])=[N+](\[O-])C(C)(C)CC(O)C#N` (stereo unspecified), for which the TGI in assay [1] is 47.5 µM; in assay [2], over 100 µM; in [3], over 100 µM; in [4] it was 42.7 µM; in assay [5], 62.8 µM; in assay [10] it was over 100 µM. Besides, the TGI was over 100 µM in assay [6], over 100 µM in [8] and 98.1 µM in assay [9].
For `COC(=O)c1cnn2c1n[n+]([O-])c1ccccc12`, the TGI in assay [1], in [2], in assay [3], in assay [4], in assay [5] and in [10] was over 100 µM in each case. In addition, the TGI in [6] and in assay [9] was over 100 µM throughout.
Turning to `COc1ccc(CSc2ccccc2Cn2cccc2)cc1OC`, the TGI in assay [1], in assay [2], in assay [3], in [4], in [10] and in [6] was over 100 µM each time. In addition, the TGI in assay [7], in assay [8] and in [9] was over 100 µM throughout.
For `O=C(Nc1cccc(F)c1)c1cc2ccc(O)cc2oc1=Nc1ccccc1F`, the TGI in assay [1] was determined as 17.1 µM; in [2], 51.5 µM; in [3], 22.4 µM; in assay [4], 7.15 µM; in assay [10], 10.3 µM; in assay [6], 23.6 µM. Besides, the TGI in [7] was found to be 27 µM; in assay [8], 21 µM; in assay [9], 14.2 µM.
For the compound `CC(NC(C)(C)C)C(=O)c1cccc(Cl)c1` (stereo unspecified), the TGI in [1], in assay [2], in assay [3], in assay [4], in [6] and in [7] was over 100 µM throughout.
For the compound `O=C(Cc1ccccc1)NN1C(=O)C(Cl)C1c1ccccc1O` (stereo unspecified), the TGI in assay [1] is over 100 µM; in assay [2] it was over 100 µM; in assay [4], over 100 µM; in assay [6], over 100 µM; in [8], 82 µM; in [9] it was 36.8 µM.
On to `COc1ccc(-n2cnc3c(NC(CCSC)C(=O)O)ncnc32)cc1` (stereo unspecified), for which the TGI in assay [1], in [2], in assay [3], in [4], in assay [5] and in assay [10] was over 100 µM throughout. The TGI in assay [6], in [8] and in assay [9] was over 100 µM each time.
In the case of `O=[As](O)(O)c1ccc(N=Nc2ccc(O)cc2)cc1`, the TGI in assay [1], in [2], in assay [3], in assay [4], in [5] and in assay [10] was over 100 µM throughout. Besides, the TGI in assay [6], in [8] and in [9] was over 100 µM throughout.
As for `COC(=O)CC1NC(=O)C1C1(C)OCCO1` (stereo unspecified), the TGI in assay [1], in assay [2], in assay [4], in [6], in [7] and in assay [8] was over 100 µM in each case. In assay [9], the TGI was over 100 µM.
`Nc1ccc(C(=O)NN2C(=O)C(Cl)C2c2ccccc2)cc1` (stereo unspecified): the TGI in assay [1], in assay [2], in assay [3], in [4], in assay [6] and in [7] was over 100 µM in each case. Also, the TGI in assay [8] and in assay [9] was over 100 µM throughout.
For `Fc1ccccc1C1SCc2nc3cc4ccccc4cc3n21` (stereo unspecified), the TGI in assay [1] is 51.5 µM; in assay [2] it was over 100 µM; in [3] it was over 100 µM; in [5], over 100 µM; in [10], over 100 µM; in assay [6], over 100 µM. The TGI in [8] and in assay [9] was over 100 µM each time.
As to `CCCc1ccc(NCc2cc(OC)c(OC)c(OC)c2)cc1`, the TGI is 50.3 µM in [1]; 61.7 µM in assay [2]; 55.2 µM in assay [3]; 30.7 µM in assay [4]; 63.3 µM in [7]; over 100 µM in assay [8]. Besides, the TGI in assay [9] turned out to be 56.6 µM.
In the case of `CCOC(=O)[C@H](Cc1ccc(O)cc1)N=C1[C@H]2CCC[C@]1(O)[C@@](C)([N+](=O)[O-])C2`, the TGI in [1], in assay [2], in assay [3], in assay [4], in assay [10] and in [6] was over 100 µM each time. Besides, the TGI in assay [7], in [8] and in [9] was over 100 µM in each case.
Take `COC(=O)C(Cc1cccc(O)c1)NC(=O)C(CC(=O)OCc1ccccc1)NC(=O)OCc1ccccc1` (stereo unspecified) (Cbz-Asp(OBn)-[mTyr]-OMe; configuration not given here): the TGI in assay [1], in assay [2], in assay [3], in [5], in [8] and in assay [9] was over 100 µM throughout.
As to `[N-]=[N+]=C1C(=O)C2CC3CC(C2)CC1C3`, the TGI in assay [1], in assay [2], in assay [3], in assay [4], in [6] and in [7] was over 100 µM throughout. Besides, the TGI in assay [8] and in [9] was over 100 µM throughout.
In the case of `COc1ccc(/C=C2\CN(C)C/C(=C\c3ccc(OC)c(OC)c3OC)C2=O)c(OC)c1OC`, the TGI worked out at 0.806 µM in assay [1]; 0.319 µM in assay [4]; 0.488 µM in assay [5]; 1.01 µM in assay [6]; 0.311 µM in [7]; 1.2 µM in assay [8].
For `N#C/C(=C\c1c[nH]c2ccccc12)C(=O)c1ccc(O)c(O)c1`, the TGI in assay [1] was over 62 µM; in assay [2] it was over 70.8 µM; in assay [3], over 100 µM; in [4], over 100 µM; in assay [10], 70.1 µM; in assay [6] it was 67 µM. Further, the TGI in [7] was over 83.7 µM; in assay [8], 98.1 µM; in assay [9] it was 45.9 µM.
